Measurements reported in patent US20240261417A1, “SOS1 DEGRADING AGENT AND PREPARATION METHOD THEREFOR AND APPLICATION THEREOF” (SHANGHAI LEADINGTAC PHARMACEUTICAL CO. LTD., priority 2021, published 2024).

Target: T1, SOS1 protein (Homo sapiens, UniProt Q07889)
T1 sequence (Q07889 1-1333): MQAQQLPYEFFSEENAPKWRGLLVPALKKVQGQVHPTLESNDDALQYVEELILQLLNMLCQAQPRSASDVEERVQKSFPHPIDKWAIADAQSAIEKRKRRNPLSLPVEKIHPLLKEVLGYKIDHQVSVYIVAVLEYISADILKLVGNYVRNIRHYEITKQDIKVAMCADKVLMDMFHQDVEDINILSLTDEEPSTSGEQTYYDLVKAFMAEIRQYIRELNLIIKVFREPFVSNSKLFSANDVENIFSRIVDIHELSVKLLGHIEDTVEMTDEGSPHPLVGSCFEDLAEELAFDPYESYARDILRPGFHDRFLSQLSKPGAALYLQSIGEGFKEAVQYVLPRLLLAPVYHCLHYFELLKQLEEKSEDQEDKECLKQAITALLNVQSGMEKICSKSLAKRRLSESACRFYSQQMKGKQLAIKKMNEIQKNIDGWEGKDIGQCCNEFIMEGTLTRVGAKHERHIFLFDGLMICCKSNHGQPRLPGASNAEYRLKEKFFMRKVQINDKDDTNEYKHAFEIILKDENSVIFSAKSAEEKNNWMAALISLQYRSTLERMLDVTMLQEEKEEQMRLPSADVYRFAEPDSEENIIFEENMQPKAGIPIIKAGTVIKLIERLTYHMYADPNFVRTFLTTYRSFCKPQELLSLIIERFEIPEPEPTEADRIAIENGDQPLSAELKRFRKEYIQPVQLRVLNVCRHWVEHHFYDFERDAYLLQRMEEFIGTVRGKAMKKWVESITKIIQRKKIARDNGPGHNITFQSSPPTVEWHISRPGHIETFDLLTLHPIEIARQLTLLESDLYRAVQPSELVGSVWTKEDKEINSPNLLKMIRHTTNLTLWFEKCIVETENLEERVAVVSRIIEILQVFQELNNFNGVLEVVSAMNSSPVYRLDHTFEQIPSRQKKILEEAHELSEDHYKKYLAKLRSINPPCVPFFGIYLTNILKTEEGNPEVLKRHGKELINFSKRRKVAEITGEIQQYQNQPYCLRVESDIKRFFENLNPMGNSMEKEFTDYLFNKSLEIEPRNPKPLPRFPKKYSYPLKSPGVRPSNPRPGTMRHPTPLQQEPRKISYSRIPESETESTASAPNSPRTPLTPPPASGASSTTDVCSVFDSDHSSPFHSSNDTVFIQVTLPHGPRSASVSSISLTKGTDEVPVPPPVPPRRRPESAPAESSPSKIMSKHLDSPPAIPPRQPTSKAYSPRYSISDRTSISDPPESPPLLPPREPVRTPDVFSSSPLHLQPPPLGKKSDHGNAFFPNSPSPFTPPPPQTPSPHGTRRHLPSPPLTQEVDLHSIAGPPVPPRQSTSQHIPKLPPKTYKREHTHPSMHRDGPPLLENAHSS
Assay: SOS1 degradation assay (Western blot), NCI-H358 cells
Type: cell-based
Design: The degradation of SOS1 by the compounds was investigated on KRAS G12C mutant human non-small cell lung cancer cells NCI-H358; host or cells: NCI-H358 (human cancer cell lines)
Conditions: SOS1 degradation, NCI-H358 cells, 24 h, Western blot; for DC50: read-out: NCI-H358 (G12C) DC50; for Dmax: read-out: NCI-H358 (G12C) Dmax
Method in brief: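 Cells at 5×10^5 per well were treated for 24 h at 37 °C with compound at 0.03–3000 nM final. SOS1 in lysates was measured by Western blot with chemiluminescent densitometry and normalised to the control group. DC50 and Dmax came from nonlinear fits against log concentration.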

SMILES | DC50 [nM] | Dmax [%]
CNCc1ccccc1-c1csc([C@@H](C)Nc2nc(C)nc3cc(OC)c([C@H]4CC[C@H](C(=O)N5CCN(CC6CCC7(CC6)CCN(C(=O)c6ccc(OC)c(N8CCC(=O)NC8=O)c6)CC7)CC5)CC4)cc23)c1 [Example 73, 1-(2-methoxy-5-(9-((4-((1R,4R)-4-(7-methoxy-2-methyl-4-(((R)-1-(4-(2-((methylamino)methyl)phenyl)thien-2-yl)ethyl)amino)quinazolin-6-yl)cyclohexane-1-carbonyl)piperazin-1-yl)methyl)-3-azaspiro[5.5]undecane-3-carbonyl)phenyl)dihydropyrimidine-2,4(1H,3H)-dione] | < 50 | 80 to 100
COc1cc2nc(C)nc(N[C@H](C)c3cc(N)cc(C(F)(F)F)c3)c2cc1[C@H]1CC[C@H](C(=O)N2CCN(CC3CCC4(CC3)CCN(C(=O)c3ccc(Cl)c(N5CCC(=O)NC5=O)c3)CC4)CC2)CC1 [Example 2, 1-(5-(9-((4-((1R,4R)-4-(4-(((R)-1-(3-amino-5-(trifluoromethyl)phenyl)ethyl)amino)-7-methoxy-2-methylquinazolin-6-yl)cyclohexane-1-carbonyl)piperazin-1-yl)methyl)-3-azaspiro[5.5]undecane-3-carbonyl)-2-chlorophenyl)dihydropyrimidine-2,4(1H,3H)-dione] | < 50 | 80 to 100
COc1cc2nc(C)nc(N[C@H](C)c3cc(N)cc(C(F)(F)F)c3)c2cc1[C@H]1CC[C@H](C(=O)N2CCC(CCOCC3CCN(C(=O)c4ccc(Cl)c(N5CCC(=O)NC5=O)c4)CC3)CC2)CC1 [Example 19, 1-(5-(4-((2-(1-((1R,4R)-4-(4-(((R)-1-(3-amino-5-(trifluoromethyl)phenyl)ethyl)amino)-7-methoxy-2-methylquinazolin-6-yl)cyclohexane-1-carbonyl)piperidin-4-yl)ethoxy)methyl)piperidine-1-carbonyl)-2-chlorophenyl)dihydropyrimidine-2,4(1H,3H)-dione] | 100 to 500 | 50 to 80
COc1cc2nc(C)nc(N[C@H](C)c3cc(N)cc(C(F)(F)F)c3)c2cc1[C@H]1CC[C@H](C(=O)N2CCN(CCC3CCC4(CC3)CCN(C(=O)c3ccc(Cl)c(N5CCC(=O)NC5=O)c3)CC4)CC2)CC1 [Example 1, 1-(5-(9-(2-(4-((1R,4R)-4-(4-(((R)-1-(3-amino-5-(trifluoromethyl)phenyl)ethyl)amino)-7-methoxy-2-methylquinazolin-6-yl)cyclohexane-1-carbonyl)piperazin-1-yl)ethyl)-3-azaspiro[5.5]undecane-3-carbonyl)-2-chlorophenyl)dihydropyrimidine-2,4(1H,3H)-dione] | < 50 | 80 to 100
COc1cc2nc(C)nc(N[C@H](C)c3cccc4c3CCS4(=O)=O)c2cc1[C@H]1CC[C@H](C(=O)N2CCN(CC3CCC4(CC3)CCN(C(=O)c3ccc(Cl)c(N5CCC(=O)NC5=O)c3)CC4)CC2)CC1 [Example 10, 1-(2-chloro-5-(9-((4-((1R,4R)-4-(4-(((R)-1-(1,1-dioxo-2,3-dihydrobenzo[b]thiophen-4-yl)ethyl)amino)-7-methoxy-2-methylquinazolin-6-yl)cyclohexane-1-carbonyl)piperazin-1-yl)methyl)-3-azaspiro[5.5]undecane-3-carbonyl)phenyl)dihydropyrimidine-2,4(1H,3H)-dione] | < 50 | 50 to 80
COc1cc2nc(C)nc(N[C@H](C)c3cc(N)cc(C(F)(F)F)c3)c2cc1[C@H]1CC[C@H](C(=O)N2CCN(CCOCC3CCN(C(=O)c4ccc(Cl)c(N5CCC(=O)NC5=O)c4)CC3)CC2)CC1 [Example 33, 1-(5-(4-((2-(4-((1R,4R)-4-(4-(((R)-1-(3-amino-5-(trifluoromethyl)phenyl)ethyl)amino)-7-methoxy-2-methylquinazolin-6-yl)cyclohexane-1-carbonyl)piperazin-1-yl)ethoxy)methyl)piperidine-1-carbonyl)-2-chlorophenyl)dihydropyrimidine-2,4(1H,3H)-dione] | < 50 | 80 to 100
